For eleven compounds, MIC and Surviving animals results are on record in US4001218A, “Penicillins” (Bayer Aktiengesellschaft, priority 1972, dated 1977).

One test concerns E. coli A 261. The test can be described thus: MIC, test tube series dilution test, E. coli A 261. The conditions noted are these: 24 hours, 37°C. The format is cell-based.
A further test deals with Proteus vulg. 1017. The class given is cell-based, Proteus vulgaris. The note with it: Proteus 1017; 24 hours, 37°C.
The next test relates to Staph. aureus 133. The class given is cell-based, Staphylococcus aureus. The note with it: Staph. aureus 133; 24 hours, 37°C.
The test system of test [1] is Psdm. aerug. F 41. The test can be described thus: animal experiment, Psdm. aerug. F 41 infection. The note with it: s.c. 4 × 3000 Units per animal.
Another test relates to E. coli 14. The format is cell-based. The note with it: E. coli 14; 24 hours, 37°C.
A further test has as its system E. coli C 165. The test can be described thus: MIC, test tube series dilution test, E. coli C 165. The class given is cell-based. The conditions noted are these: 24 hours, 37°C.
The next test has as its system E. coli 183/58. The test can be described thus: MIC, test tube series dilution test, E. coli 183/58. The class given is cell-based. The note with it: 24 hours, 37°C.
A further test has as its system Proteus morg. 932. Description: MIC, test tube series dilution test, Proteus morg. 932. The format is cell-based. The note with it: 24 hours, 37°C.
For test [2], the system named is Psdm. aerug. F 41. The test can be described thus: MIC, test tube series dilution test, Psdm. aerug. F 41. The conditions noted are these: Psdm. aerug. F 41; 24 hours, 37°C. The class given is cell-based, Pseudomonas aeruginosa.
A further test relates to Psdm. aerug. Walter. The test can be described thus: MIC, test tube series dilution test, Psdm. aerug. Walter. The conditions noted are these: Psdm. aerug. Walter; 24 hours, 37°C. The format is cell-based, Pseudomonas aeruginosa.
Another test relates to Klebsiella K 10. Description: MIC, test tube series dilution test, Klebsiella K 10. The format is cell-based. The conditions noted are these: 24 hours, 37°C.
In another test the test system is Klebsiella 63. The test can be described thus: MIC, test tube series dilution test, Klebsiella 63. The format is cell-based. The note with it: Klebsiella 63; 24 hours, 37°C.
Another test has as its system Staph. aureus 1756. The test can be described thus: MIC, test tube series dilution test, Staph. aureus 1756. The note with it: Staph. aureus 1756; 24 hours, 37°C. The class given is cell-based, Staphylococcus aureus.
The next test deals with Enterococcus 9790. The test can be described thus: MIC, test tube series dilution test, Enterococcus 9790. The format is cell-based. The conditions noted are these: 24 hours, 37°C.

Each structure is given as a SMILES string.

Turning to `COc1cc(C(=O)Nc2ccc(C(=O)N[C@@H](C(=O)N[C@@H]3C(=O)N4[C@@H]3SC(C)(C)[C@@H]4C(=O)O)c3ccccc3)cc2)cc(OC)c1OC` [Example 22, Sodium D(-)-α-(4-[3,4,5-trimethoxybenzoylaminobenzoylamino])-benzylpenicillin], the MIC with E. coli A 261 is recorded as above 256 U/ml; in the test with Proteus vulg. 1017, ~ 16 U/ml; with Staph. aureus 133 it was below 1 U/ml. For the same compound, the Surviving animals came to 80% with Psdm. aerug. F 41 [1] (1st day after infection, experiment with Ex.22); 80% in the test with Psdm. aerug. F 41 [1] (2nd day after infection, experiment with Ex.22); 80% in the test on Psdm. aerug. F 41 [1] (3rd day after infection, experiment with Ex.22).

In the case of `CC1(C)S[C@@H]2[C@H](NC(=O)[C@H](NC(=O)c3ccc(NC(=O)c4ccccc4)cc3)c3ccccc3)C(=O)N2[C@H]1C(=O)O` [Example 25], the MIC against E. coli 14 is given as 8 U/ml; against E. coli A 261, above 256 U/ml; against E. coli C 165, 16 U/ml; in the test on E. coli 183/58, 8 U/ml; against Proteus morg. 932, 16 U/ml; in the test on Proteus vulg. 1017, 128 U/ml. For the same compound, the MIC is on record as 16 U/ml against Psdm. aerug. F 41 [2]; 32 U/ml against Psdm. aerug. Walter; 64 U/ml with Klebsiella K 10; 32 U/ml in the test with Klebsiella 63; 64 U/ml with Staph. aureus 1756; below 1 U/ml in the test on Staph. aureus 133. The same compound came in with an MIC in the test with Enterococcus 9790 of 8 U/ml.

Regarding `CC1(C)S[C@@H]2[C@H](NC(=O)[C@H](NC(=O)c3ccc(NC(=O)c4ccc(N=[N+]=[N-])cc4)cc3)c3ccccc3)C(=O)N2[C@H]1C(=O)O` [Example 26], the MIC against E. coli 14 is below 1 U/ml; in the test with E. coli A 261 it was 256 U/ml; against E. coli C 165, 4 U/ml; with E. coli 183/58, below 1 U/ml; in the test on Proteus morg. 932, 8 U/ml; in the test on Proteus vulg. 1017, 16 U/ml. For the same compound, the MIC in the test on Psdm. aerug. F 41 [2] was 16 U/ml; against Psdm. aerug. Walter, 16 U/ml; against Klebsiella K 10, 16 U/ml; against Klebsiella 63, 4 U/ml; against Staph. aureus 1756 it was 64 U/ml; against Staph. aureus 133 it was below 1 U/ml. Further, the MIC in the test with Enterococcus 9790 turned out to be 16 U/ml.

For `CC1(C)S[C@@H]2[C@H](NC(=O)[C@H](NC(=O)c3ccc(NC(=O)c4ccc([N+](=O)[O-])cc4)cc3)c3ccccc3)C(=O)N2[C@H]1C(=O)O` [Example 28, sodium D(-)-α-[4-(4-nitrobenzoylamino)-benzoylamino]-benzylpenicillin], the MIC in the test on E. coli 14 is below 1 U/ml; against E. coli A 261, above 256 U/ml; against E. coli C 165, 4 U/ml; with E. coli 183/58, 4 U/ml; in the test with Proteus morg. 932, 128 U/ml; against Proteus vulg. 1017, 16 U/ml. Moreover, the MIC is listed as 16 U/ml against Psdm. aerug. F 41 [2]; 16 U/ml in the test with Psdm. aerug. Walter; 16 U/ml in the test on Klebsiella K 10; 16 U/ml in the test with Klebsiella 63; ~ 32 U/ml in the test with Staph. aureus 1756; below 1 U/ml with Staph. aureus 133. In addition, the MIC with Enterococcus 9790 stood at 4 U/ml.

For the compound `CC1(C)S[C@@H]2[C@H](NC(=O)[C@H](NC(=O)c3ccc(NC(=O)c4ccc(N)cc4)cc3)c3ccccc3)C(=O)N2[C@H]1C(=O)O` [Example 29, sodium D(-)-α-[4-(4-aminobenzoylamino)-benzoylamino] -benzylpenicillin], the MIC against E. coli 14 is on record as below 1 U/ml; in the test with E. coli A 261, above 256 U/ml; against E. coli C 165, 4 U/ml; with E. coli 183/58 it was 16 U/ml; with Proteus morg. 932, above 256 U/ml; against Proteus vulg. 1017 it was 256 U/ml. In addition, the MIC is ~ 32 U/ml in the test on Psdm. aerug. F 41 [2]; 32 U/ml in the test on Psdm. aerug. Walter; 128 U/ml with Klebsiella K 10; 64 U/ml against Klebsiella 63; 32 U/ml in the test on Staph. aureus 1756; below 1 U/ml in the test on Staph. aureus 133. The compound also returned an MIC with Enterococcus 9790 of 4 U/ml. In addition, the Surviving animals was found to be 100% in the test on Psdm. aerug. F 41 [1] (1st day after infection, experiment with Ex.29); 80% in the test on Psdm. aerug. F 41 [1] (2nd day after infection, experiment with Ex.29); 70% in the test on Psdm. aerug. F 41 [1] (3rd day after infection, experiment with Ex.29); 70% in the test on Psdm. aerug. F 41 [1] (5th day after infection, experiment with Ex.29).

Turning to `CC1(C)S[C@@H]2[C@H](NC(=O)[C@H](NC(=O)c3ccc(NC(N)=O)cc3)c3ccccc3)C(=O)N2[C@H]1C(=O)O` [Example 30, sodium D(-)-α-(4-carbamoylaminobenzoylamino)-benzylpenicillin], the MIC in the test on E. coli 14 was ~ 32 U/ml; in the test with E. coli A 261 it was above 256 U/ml; against E. coli C 165 it was 32 U/ml; in the test on E. coli 183/58, 256 U/ml; in the test on Proteus morg. 932, above 256 U/ml; against Proteus vulg. 1017 it was above 256 U/ml. Moreover, the MIC in the test on Psdm. aerug. F 41 [2] was 128 U/ml; in the test on Psdm. aerug. Walter, above 256 U/ml; in the test on Klebsiella K 10 it was above 256 U/ml; in the test on Klebsiella 63, 256 U/ml; with Staph. aureus 1756 it was 64 U/ml; with Staph. aureus 133, below 1 U/ml. Further, the MIC in the test with Enterococcus 9790 was 8 U/ml.

As to `CC1(C)S[C@@H]2[C@H](NC(=O)[C@H](NC(=O)c3ccc(NC(=O)C=Cc4ccccc4)cc3)c3ccccc3)C(=O)N2[C@H]1C(=O)O` [Example 35], the MIC against E. coli 14 was below 1 U/ml; in the test on E. coli A 261, above 256 U/ml; against E. coli C 165, 4 U/ml; in the test with E. coli 183/58 it was below 1 U/ml; in the test with Proteus morg. 932, 128 U/ml; against Proteus vulg. 1017, ~ 1 U/ml. In addition, the MIC in the test with Psdm. aerug. F 41 [2] is recorded as 4 U/ml; in the test with Psdm. aerug. Walter, 4 U/ml; in the test on Klebsiella K 10 it was 16 U/ml; against Klebsiella 63, 8 U/ml; with Staph. aureus 1756, 8 U/ml; against Staph. aureus 133, below 1 U/ml. Also, the MIC against Enterococcus 9790 was ~ 4 U/ml.

Take `CC(N=[N+]=[N-])C(=O)Nc1ccc(C(=O)N[C@@H](C(=O)N[C@@H]2C(=O)N3[C@@H]2SC(C)(C)[C@@H]3C(=O)O)c2ccccc2)cc1` (some centres unmarked) [Example 37]: the MIC in the test with E. coli 14 is on record as 4 U/ml; in the test on E. coli A 261, above 256 U/ml; in the test with E. coli C 165, 8 U/ml; with E. coli 183/58, 16 U/ml; against Proteus morg. 932, ~ 128 U/ml; with Proteus vulg. 1017, 128 U/ml. In addition, the MIC in the test with Psdm. aerug. F 41 [2] is on record as ~ 32 U/ml; against Psdm. aerug. Walter, 32 U/ml; against Klebsiella K 10 it was 64 U/ml; in the test on Klebsiella 63, 32 U/ml; against Staph. aureus 1756 it was 64 U/ml; with Staph. aureus 133, below 1 U/ml. In the test on Enterococcus 9790, this compound returned an MIC of 16 U/ml.

In the case of `CC1(C)S[C@@H]2[C@H](NC(=O)[C@H](NC(=O)c3ccc(NC(=O)CCN=[N+]=[N-])cc3)c3ccccc3)C(=O)N2[C@H]1C(=O)O` [Example 38], the MIC against E. coli 14 is 4 U/ml; in the test with E. coli A 261, above 256 U/ml; in the test with E. coli C 165, 16 U/ml; in the test on E. coli 183/58, 16 U/ml; against Proteus morg. 932, ~ 256 U/ml; with Proteus vulg. 1017 it was 32 U/ml. In addition, the MIC with Psdm. aerug. F 41 [2] is reported as 32 U/ml; with Psdm. aerug. Walter, 32 U/ml; against Klebsiella K 10, 128 U/ml; against Klebsiella 63 it was 64 U/ml; against Staph. aureus 1756, 32 U/ml; with Staph. aureus 133, below 1 U/ml. Besides, the MIC with Enterococcus 9790 was ~ 16 U/ml.

With `CC1(C)S[C@@H]2[C@H](NC(=O)[C@H](NC(=O)c3ccc(NC(=O)Nc4ccccc4)cc3)c3ccccc3)C(=O)N2[C@H]1C(=O)O` [Example 45], the MIC against E. coli 14 is below 1 U/ml; with E. coli A 261 it was above 256 U/ml; in the test on E. coli C 165, 8 U/ml; in the test with E. coli 183/58 it was 4 U/ml; in the test on Proteus morg. 932, 128 U/ml; in the test on Proteus vulg. 1017, 16 U/ml. Besides, the MIC against Psdm. aerug. F 41 [2] is recorded as 8 U/ml; against Psdm. aerug. Walter it was 16 U/ml; in the test on Klebsiella K 10, 32 U/ml; with Klebsiella 63, 16 U/ml; against Staph. aureus 1756, 16 U/ml; with Staph. aureus 133, below 1 U/ml. In addition, the MIC against Enterococcus 9790 was below 1 U/ml.

On to `CC1(C)S[C@@H]2[C@H](NC(=O)[C@H](NC(=O)CNC(=O)c3ccc(NC(=O)C4CCCC4)cc3)c3ccccc3)C(=O)N2[C@H]1C(=O)O` [Example 66], for which the MIC in the test with E. coli 14 is listed as 8 U/ml; in the test on E. coli A 261, above 256 U/ml; against E. coli C 165, 32 U/ml; in the test with E. coli 183/58, 64 U/ml; in the test with Proteus morg. 932, above 256 U/ml; in the test with Proteus vulg. 1017, 32 U/ml. The MIC is listed as 64 U/ml against Psdm. aerug. F 41 [2]; 128 U/ml in the test on Psdm. aerug. Walter; 64 U/ml in the test with Klebsiella K 10; 32 U/ml in the test on Klebsiella 63; 32 U/ml in the test on Staph. aureus 1756; below 1 U/ml in the test on Staph. aureus 133. Further, the MIC against Enterococcus 9790 is 32 U/ml.
